Literature values in US4554271A, “Use of high doses of derivatives of 6α-methylprednisolone for the acute treatment of stroke syndrome” (The Upjohn Company, priority 1984, dated 1985).
Counter-ions that a name gives are not always drawn. Like-named read-outs stand apart in the source and are kept apart here. Blank lines part the entries; values can stand above or below the compound they belong to.

Key:
[1] = tested on: ischemia-induced neurological deficits; details: gerbils; title of cited paper
[2] = single 30-mg/kg dose
cerebral ischemia = details: anesthetized gerbil; 35 mg/kg; bilateral occlusion of the carotid arteries
[3] = tested on: cyclic guanosine 3',5'-monophosphate (cyclic GMP); details: cat
[4] = tested on: spinal cord-injured animals; details: comparable doses (15 to 30 mg/kg) soon after injury; other studies
[5] = tested on: cardiac, renal, and hepatic ischemia; details: in vivo
(Na^+ +K^+)-ATPase [6] = details: for (Na^+ +K^+)-ATPase activity in the injured cord: cat
[7] = tested on: adenylate cyclase systems
(Na^+ +K^+)-ATPase [8] = details: cat spinal cord; large intravenous doses
motor neuron = details: cat; large intravenous doses
lipid peroxide formation = details: cat spinal cord; large intravenous doses
[9] = tested on: canine middle cerebral artery (MCA); details: canine MCA embolization, embolectomy at 6 hours; DMSO 2 gm/kg
[10] = 15- or 30-mg/kg intravenous dose given 30 minutes after trauma, earlier studies

SMILES: C=CCN1CC[C@]23c4c5ccc(O)c4O[C@H]2C(=O)CC[C@@]3(O)[C@H]1C5 [naloxone]
reversal of ischemia-induced neurological deficits [1]: Failure

spinal cord tissue levels of methylprednisolone at which each of the effects is apparent (cat, single intravenous dose of 30 mg/kg): around 1.3 μg/gm wet weights
half-life in cat spinal cord (single intravenous administration, 30 mg/kg): roughly 3 hours
harmful effects [2]: virtually without harmful effects
SMILES: C[C@H]1C[C@@H]2[C@H]([C@@H](O)C[C@@]3(C)[C@H]2CC[C@]3(O)C(=O)CO)[C@@]2(C)C=CC(=O)C=C12 [methylprednisolone, 1-Dehydro-6α-methylhydrocortisone]
duration of its pharmacological actions (cat, single intravenous administration): roughly 3 hours
survival after cerebral ischemia (cerebral ischemia): improved survival
lipid peroxidation at 1 hour after injury (lipid peroxidation; [10]): significantly reduce
injury-induced increase in fluorescence (lipid peroxy products) in spinal segment (lipid peroxidation; cat, 15 or 30 mg/kg i.v. at 30 minutes after injury, read at 1 hour): completely prevented
injury-induced increase in cyclic GMP content in spinal segment ([3]; 15 or 30 mg/kg i.v. at 30 minutes after injury, read at 1 hour): completely prevented
elevation in cyclic GMP ([3]; 60-mg/kg dose): did not prevent
recovery and tissue preservation in spinal cord-injured animals [4]: significantly greater
relieving cardiac, renal, and hepatic ischemia [5]: effective
(Na^+ +K^+)-ATPase activity at 1 hour after injury ((Na^+ +K^+)-ATPase [6]; [10]): enhance
(Na^+ +K^+)-ATPase activity in the injured cord ((Na^+ +K^+)-ATPase [6]; 30-mg/kg dose): striking increase
(Na^+ +K^+)-ATPase activity in the injured cord ((Na^+ +K^+)-ATPase [6]; 60-mg/kg dose): depression in activity
damaging effect (adenylate cyclase systems) of 60 minutes occlusion plus 15 minutes recirculation ([7]; barbiturate-anesthetized gerbils, pretreatment 30 mg/kg, 30 min. prior to carotid ligation): prevented
chronic (7 days) enzyme damage elicited by 15 minutes of bilateral stroke ([7]; gerbils, preliminary work): prevented

SMILES: C[C@H]1C[C@@H]2[C@H]([C@@H](O)C[C@@]3(C)[C@H]2CC[C@]3(O)C(=O)COC(=O)CCC(=O)O)[C@@]2(C)C=CC(=O)C=C12 [methylprednisolone sodium succinate, 1-dehydro-6α-methylhydrocortisone 21-hemisuccinate sodium salt]
spinal cord (Na^+ +K^+)-ATPase activity ((Na^+ +K^+)-ATPase [8]): enhancement
impulse conduction along the myelinated portion of the motor axon (motor neuron): accelerated
motor neuron resting membrane potentials (motor neuron): hyperpolarization
lipid peroxide formation (lipid peroxide formation): attenuation

SMILES: C[S+](C)[O-] [DMSO, dimethyl sulfoxide]
infarction of the brain [9]: no infarction
